Reference: patent publication US10179790B2 (THOMAS HELLEDAYS STIFTELSE FOR MEDICINSK FORSKNING, priority 2014, dated 2019)

Tests used:
MTH1 = MTH1 (Homo sapiens, UniProt P36639); experiment: MTH1 enzymatic assay and IC50 value determination (malachite green, 96- and 384-well format); type: biochemical; details: hydrolysis of dGTP (100 μM), MTH1 6 nM, pyrophosphatase-coupled malachite green, 15 minutes at 22° C.
How it was run: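 MTH1 (6 nM) hydrolysed dGTP (100 μM) for 15 min at 22 °C in Tris-acetate buffer with Mg2+, DTT, Tween 20 and excess pyrophosphatase, 1% DMSO. Pi detected with malachite green at 630 nm. IC50 from nonlinear 4-parameter fit of 11–12-point dilution series.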

cancer cell = experiment: Cell viability assay (resazurin); type: cell-based; details: 72 h; 3 days with compound, resazurin fluorescence; cell line not named
How it was run: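 Cells in DMEM GlutaMAX or line-appropriate medium are exposed to compound for 3 days at 37 °C, 5% CO2. Viability is read as resazurin fluorescence (Ex544/Em590) after 2 h incubation. In the 384-well format, cells are seeded onto 11 pre-dispensed concentrations (final DMSO <1%) and read after 3 h resazurin.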

| SMILES | IC50 (MTH1) [nM] | IC50 (cancer cell) [nM] |
| --- | --- | --- |
| Cc1c(Cl)cccc1-c1cc(NCCc2ccc(C(N)=S)cc2)nc(N)n1 [Example 111, 4-[2-[[2-amino-6-(3-chloro-2-methyl-phenyl)pyrimidin-4-yl]amino]ethyl]benzenecarbothioamide] | < 200 | < 500 |
| CCNC(=O)Nc1ccc(CCNc2cc(-c3cccc(Cl)c3C)nc(N)n2)cc1 [Example 112, 1-[4-[2-[[2-amino-6-(3-chloro-2-methyl-phenyl)pyrimidin-4-yl]amino]ethyl]phenyl]-3-ethyl-urea] | < 200 | < 500 |
| Cc1c(Cl)cccc1-c1cc(NCCc2ccc(NC(=O)NC(C)(C)C)cc2)nc(N)n1 [Example 113, 1-[4-[2-[[2-amino-6-(3-chloro-2-methyl-phenyl)pyrimidin-4-yl]amino]ethyl]phenyl]-3-tert-butyl-urea] | < 200 | < 500 |
| C=CCNC(=O)Nc1ccc(CCNc2cc(-c3cccc(Cl)c3C)nc(N)n2)cc1 [Example 114, 1-allyl-3-[4-[2-[[2-amino-6-(3-chloro-2-methyl-phenyl)pyrimidin-4-yl]amino]ethyl]phenyl]urea] | < 200 | < 500 |
| CCOC(=O)NC(=O)Nc1ccc(CCNc2cc(-c3cccc(Cl)c3C)nc(N)n2)cc1 [Example 115, ethyl N-[[4-[2-[[2-amino-6-(3-chloro-2-methyl-phenyl)pyrimidin-4-yl]amino]ethyl]phenyl]carbamoyl]carbamate] | < 200 | < 500 |
| CCC(C)NC(=O)Nc1ccc(CCNc2cc(-c3cccc(Cl)c3C)nc(N)n2)cc1 (stereo not shown) [Example 116, 1-[4-[2-[[2-amino-6-(3-chloro-2-methyl-phenyl)pyrimidin-4-yl]amino]ethyl]phenyl]-3-sec-butyl-urea] | < 200 | < 500 |
| CCNC(=S)Nc1ccc(CCNc2cc(-c3cccc(Cl)c3C)nc(N)n2)cc1 [Example 117, 1-[4-[2-[[2-amino-6-(3-chloro-2-methyl-phenyl)pyrimidin-4-yl]amino]ethyl]phenyl]-3-ethyl-thiourea] | < 200 | < 500 |
| Cc1c(Cl)cccc1-c1cc(NCCc2ccc(NC(=O)N3CCOCC3)cc2)nc(N)n1 [Example 118, N-[4-[2-[[2-amino-6-(3-chloro-2-methyl-phenyl)pyrimidin-4-yl]amino]ethyl]phenyl]morpholine-4-carboxamide] | < 200 | < 500 |
| Cc1c(Cl)cccc1-c1cc(NCCc2ccc(NC(=O)OC(C)C)cc2)nc(N)n1 [Example 119, isopropyl N-[4-[2-[[2-amino-6-(3-chloro-2-methyl-phenyl)pyrimidin-4-yl]amino]ethyl]phenyl]carbamate] | < 200 | < 500 |
| Cc1c(Cl)cccc1-c1cc(NCCc2ccc(NC(=O)OCC(C)C)cc2)nc(N)n1 [Example 120, isobutyl N-[4-[2-[[2-amino-6-(3-chloro-2-methyl-phenyl)pyrimidin-4-yl]amino]ethyl]phenyl]carbamate] | < 200 | < 500 |
| Cc1c(Cl)cccc1-c1cc(NCCc2ccc(NC(=O)OCC(C)(C)C)cc2)nc(N)n1 [Example 121, 2,2-dimethylpropyl N-[4-[2-[[2-amino-6-(3-chloro-2-methyl-phenyl)pyrimidin-4-yl]amino]ethyl]phenyl]carbamate] | < 200 | < 500 |
| COCCOC(=O)Nc1ccc(CCNc2cc(-c3cccc(Cl)c3C)nc(N)n2)cc1 [Example 122, 2-methoxyethyl N-[4-[2-[[2-amino-6-(3-chloro-2-methyl-phenyl)pyrimidin-4-yl]amino]ethyl]phenyl]carbamate] | < 200 | < 500 |
| CC#CCOC(=O)Nc1ccc(CCNc2cc(-c3cccc(Cl)c3C)nc(N)n2)cc1 [Example 123, but-2-ynyl N-[4-[2-[[2-amino-6-(3-chloro-2-methyl-phenyl)pyrimidin-4-yl]amino]ethyl]phenyl]carbamate] | < 200 | < 500 |
| Cc1c(Cl)cccc1-c1cc(NCCc2ccc(NC#N)cc2)nc(N)n1 [Example 124, [4-[2-[[2-amino-6-(3-chloro-2-methyl-phenyl)pyrimidin-4-yl]amino]ethyl]phenyl]cyanamide] | < 200 | < 500 |
| Cc1cccc(-c2cc(NCCNc3ccnc(N)n3)nc(N)n2)c1C [Example 126, 4-N-(2-{[2-amino-6-(2,3-dimethylphenyl)pyrimidin-4-yl]amino}ethyl)pyrimidine-2,4-diamine] | < 200 | < 500 |
| Cc1cccc(-c2cc(NCCNc3ccc(N)nc3)nc(N)n2)c1C [Example 127, 5-N-(2-{[2-amino-6-(2,3-dimethylphenyl)pyrimidin-4-yl]amino}ethyl)pyridine-2,5-diamine] | < 200 | < 500 |

| SMILES | IC50 (MTH1) [nM] | IC50 (cancer cell) [nM] |
| --- | --- | --- |
| Cc1cccc(-c2cc(NCCNc3ccc(N)cc3F)nc(N)n2)c1C [Example 128, 1-N-(2-{[2-amino-6-(2,3-dimethylphenyl)pyrimidin-4-yl]amino}ethyl)-2-fluorobenzene-1,4-diamine] | < 200 | < 500 |
| Cc1c(Cl)cccc1-c1cc(NCCCNc2ccc(C(N)=O)cc2)nc(N)n1 [Example 143, 4-[3-[[2-amino-6-(3-chloro-2-methyl-phenyl)pyrimidin-4-yl]amino]propylamino]benzamide] | < 200 | < 500 |
| CNS(=O)(=O)c1ccc(NCCCNc2cc(-c3cccc(Cl)c3C)nc(N)n2)cc1 [Example 144, 4-[3-[[2-amino-6-(3-chloro-2-methyl-phenyl)pyrimidin-4-yl]amino]propylamino]-N-methyl-benzenesulfonamide] | < 200 | < 500 |
| Cc1nc2ccc(NCCCNc3cc(-c4cccc(Cl)c4C)nc(N)n3)cc2s1 [Example 145, 6-(3-chloro-2-methyl-phenyl)-N4-[3-[(2-methyl-1,3-benzothiazol-6-yl)amino]propyl]pyrimidine-2,4-diamine] | < 200 | < 500 |
| Cc1c(Cl)cccc1-c1cc(NCCNc2nccc(C(N)=O)n2)nc(N)n1 [Example 146, 2-[2-[[2-amino-6-(3-chloro-2-methyl-phenyl)pyrimidin-4-yl]amino]ethylamino]pyrimidine-4-carboxamide] | < 200 | < 500 |
| CCNC(=O)Nc1cccc(CCNc2cc(-c3cccc(Cl)c3C)nc(N)n2)c1 [Example 148, 1-[3-[2-[[2-amino-6-(3-chloro-2-methyl-phenyl)pyrimidin-4-yl]amino]ethyl]phenyl]-3-ethyl-urea] | < 200 | < 500 |
| Cc1c(Cl)cccc1-c1cc(NCCc2cccc(NC(=O)NC(C)(C)C)c2)nc(N)n1 [Example 149, 1-[3-[2-[[2-amino-6-(3-chloro-2-methyl-phenyl)pyrimidin-4-yl]amino]ethyl]phenyl]-3-tert-butyl-urea] | < 200 | < 500 |
| Cc1c(Cl)cccc1-c1cc(NCCc2cccc(NC(=O)N3CCOCC3)c2)nc(N)n1 [Example 150, N-[3-[2-[[2-amino-6-(3-chloro-2-methyl-phenyl)pyrimidin-4-yl]amino]ethyl]phenyl]morpholine-4-carboxamide] | < 200 | < 500 |
| Cc1c(Cl)cccc1-c1cc(NCCc2cccc(NC(=O)N(C)C)c2)nc(N)n1 [Example 151, 3-[3-[2-[[2-amino-6-(3-chloro-2-methyl-phenyl)pyrimidin-4-yl]amino]ethyl]phenyl]-1,1-dimethyl-urea] | < 200 | < 500 |
| Cc1c(Cl)cccc1-c1cc(NCCc2cccc(NC(=O)N3CCCC3)c2)nc(N)n1 [Example 152, N-[3-[2-[[2-amino-6-(3-chloro-2-methyl-phenyl)pyrimidin-4-yl]amino]ethyl]phenyl]pyrrolidine-1-carboxamide] | < 200 | < 500 |
| Cc1c(Cl)cccc1-c1cc(NCCc2cccc(NC(=O)OC(C)C)c2)nc(N)n1 [Example 153, isopropyl N-[3-[2-[[2-amino-6-(3-chloro-2-methyl-phenyl)pyrimidin-4-yl]amino]ethyl]phenyl]carbamate] | < 200 | < 500 |
| Cc1c(Cl)cccc1-c1cc(NCCc2cccc(NC(=O)OCC(C)C)c2)nc(N)n1 [Example 154, isobutyl N-[3-[2-[[2-amino-6-(3-chloro-2-methyl-phenyl)pyrimidin-4-yl]amino]ethyl]phenyl]carbamate] | < 200 | < 500 |
| Cc1c(Cl)cccc1-c1cc(NCCc2cccc(NC(=O)OCC(C)(C)C)c2)nc(N)n1 [Example 155, 2,2-dimethylpropyl N-[3-[2-[[2-amino-6-(3-chloro-2-methyl-phenyl)pyrimidin-4-yl]amino]ethyl]phenyl]carbamate] | < 200 | < 500 |
| Cc1c(Cl)cccc1-c1cc(NCCNc2ncc(C(N)=O)c(C(F)(F)F)n2)nc(N)n1 [Example 159, 2-[2-[[2-amino-6-(3-chloro-2-methyl-phenyl)pyrimidin-4-yl]amino]ethylamino]-4-(trifluoromethyl)pyrimidine-5-carboxamide] | < 200 | < 500 |
| Cc1c(Cl)cccc1-c1cc(NCCNc2ccc(S(=O)(=O)C(C)C)cc2)nc(N)n1 [Example 160, 6-(3-chloro-2-methyl-phenyl)-N4-[2-(4-isopropylsulfonylanilino)ethyl]pyrimidine-2,4-diamine] | < 200 | < 500 |
| Cc1c(Cl)cccc1-c1cc(NCCNc2ccc([S+](C)[O-])cc2)nc(N)n1 (stereo not shown) [Example 161, 6-(3-chloro-2-methyl-phenyl)-N4-[2-(4-methylsulfinylanilino)ethyl]pyrimidine-2,4-diamine] | < 200 | < 500 |
